In PubChem BioAssay (NCI):
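In this assay, cells in 96-well plates receive the compound at five concentrations for 48 hours. Endpoints are linearly interpolated between the surrounding concentrations. TGI marks complete inhibition of growth.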

Tests used:
Test in all cases: NCI-60 cell line screen, 48 h
[1] = test system: SK-OV-3 ovarian
[2] = test system: SK-MEL-28 melanoma
[3] = test system: NCI-H23 lung
[4] = test system: LXFL 529 NSCLC
[5] = test system: HOP-92 NSCLC
[6] = test system: LOX IMVI melanoma
[7] = test system: SF-295 CNS
[8] = test system: HCT-15 colon
[9] = test system: ACHN renal
[10] = test system: IGROV1 ovarian
[11] = test system: SNB-75 CNS
[12] = test system: M14 melanoma
[13] = test system: SK-MEL-5 melanoma
[14] = test system: HL-60(TB) leukemia
[15] = test system: MOLT-4 leukemia
[16] = test system: OVCAR-8 ovarian
[17] = test system: HOP-62 NSCLC
[18] = test system: SW-620 colon
[19] = test system: KM12 colon
[20] = test system: DMS 114 small cell lung
[21] = test system: HT29 colon
[22] = test system: OVCAR-4 ovarian
[23] = test system: NCI-H226 lung
[24] = test system: EKVX NSCLC
[25] = test system: DLD-1 colon
[26] = test system: DMS 273 small cell lung
[27] = test system: HCT-116 colon
[28] = test system: A549 NSCLC
[29] = test system: K-562 leukemia
[30] = test system: HOP-18 NSCLC
[31] = test system: RXF 393 renal
[32] = test system: HCC-2998 colon
[33] = test system: KM20L2 colon
[34] = test system: RPMI-8226 leukemia
[35] = test system: SN12C renal
[36] = test system: RXF-631 renal
[37] = test system: NCI-H522 lung
[38] = test system: M19-MEL melanoma
[39] = test system: OVCAR-3 ovarian
[40] = test system: MALME-3M melanoma
[41] = test system: A498 renal
[42] = test system: UACC-62 melanoma
[43] = test system: COLO 205 colon
[44] = test system: U251 CNS
[45] = test system: XF 498 CNS
[46] = test system: SK-MEL-2 melanoma
[47] = test system: CAKI-1 renal
[48] = test system: NCI-H460 lung
[49] = test system: 786-0 renal
[50] = test system: SNB-19 CNS
[51] = test system: SF-539 CNS
[52] = test system: UO-31 renal
[53] = test system: SF-268 CNS
[54] = test system: CCRF-CEM leukemia
[55] = test system: UACC-257 melanoma
[56] = test system: OVCAR-5 ovarian
[57] = test system: SR leukemia
[58] = test system: SNB-78 CNS

CCOC(=O)C(=Cc1cc(OC)ccc1OC)C(=O)OCC
TGI [1]: 29.9 µM
TGI [2]: 17.1 µM
TGI [3]: 10.9 µM
TGI [4]: 12.2 µM
TGI [5]: 17 µM
TGI [6]: 19.5 µM
TGI [7]: 26.5 µM
TGI [8]: 22 µM
TGI [9]: 31.8 µM
TGI [10]: 58.5 µM
TGI [11]: 5.95 µM
TGI [12]: 24.2 µM
TGI [13]: 17.2 µM
TGI [14]: 6.12 µM
TGI [15]: 37.9 µM
TGI [16]: 20.9 µM
TGI [17]: 23.6 µM
TGI [18]: 14 µM
TGI [19]: 19.9 µM
TGI [20]: 11.8 µM
TGI [21]: 17 µM
TGI [22]: 21.6 µM
TGI [23]: 27 µM
TGI [24]: 31.3 µM
TGI [25]: 21.8 µM
TGI [26]: 14.2 µM
TGI [27]: 27.5 µM
TGI [28]: 26.9 µM
TGI [29]: 27.4 µM
TGI [30]: 23.6 µM
TGI [31]: 6.2 µM
TGI [32]: 34.8 µM
TGI [33]: 17.5 µM
TGI [34]: 10.9 µM
TGI [35]: 26.3 µM
TGI [36]: 32.5 µM
TGI [37]: 14.4 µM
TGI [38]: 17.9 µM
TGI [39]: 22.5 µM
TGI [40]: 25.5 µM
TGI [41]: 28.5 µM
TGI [42]: 6.13 µM
TGI [43]: 17.2 µM
TGI [44]: 20 µM
TGI [45]: 23.6 µM
TGI [46]: 18.1 µM
TGI [47]: 28.1 µM
TGI [48]: > 100 µM
TGI [49]: 14.1 µM
TGI [50]: 25 µM
TGI [51]: 15.1 µM

Cc1ccccc1NC(=O)C1C(=O)N(c2ccccc2C)C(=O)/C1=N\N (configuration not stated)
TGI [1]: > 100 µM
TGI [2]: > 100 µM
TGI [3]: > 100 µM
TGI [4]: > 100 µM
TGI [5]: > 100 µM
TGI [6]: > 100 µM
TGI [7]: > 100 µM
TGI [8]: > 100 µM
TGI [9]: > 100 µM
TGI [52]: > 100 µM
TGI [10]: > 100 µM
TGI [11]: > 100 µM
TGI [12]: > 100 µM
TGI [13]: > 100 µM
TGI [14]: > 100 µM
TGI [15]: > 100 µM
TGI [16]: > 100 µM
TGI [53]: > 100 µM
TGI [17]: > 100 µM
TGI [18]: > 100 µM
TGI [19]: > 100 µM
TGI [20]: > 100 µM
TGI [21]: > 100 µM
TGI [22]: > 100 µM
TGI [23]: > 100 µM
TGI [24]: > 100 µM
TGI [25]: > 100 µM
TGI [27]: > 100 µM
TGI [28]: > 100 µM
TGI [29]: > 100 µM
TGI [30]: > 100 µM
TGI [31]: > 100 µM
TGI [32]: > 100 µM
TGI [33]: > 100 µM
TGI [34]: > 100 µM
TGI [35]: > 100 µM
TGI [36]: > 100 µM
TGI [37]: > 100 µM
TGI [38]: > 100 µM
TGI [54]: > 100 µM
TGI [39]: > 100 µM
TGI [40]: > 100 µM
TGI [41]: > 100 µM
TGI [42]: > 100 µM
TGI [55]: > 100 µM
TGI [43]: > 100 µM
TGI [56]: > 100 µM
TGI [44]: > 100 µM
TGI [46]: > 100 µM
TGI [47]: > 100 µM
TGI [57]: > 100 µM
TGI [58]: > 100 µM
TGI [48]: > 100 µM
TGI [49]: > 100 µM
TGI [50]: > 100 µM
TGI [51]: > 100 µM
